The values below come from ChEMBL document CHEMBL5241112, “Insights into the recent progress in the medicinal chemistry of pyranopyrimidine analogs” (RSC Med Chem, 2022).

≈ marks a conversion by molar mass, not a printed value.

The subject of assay [1] is Mycobacterium tuberculosis. Description: Antitubercular activity against Mycobacterium tuberculosis H37Rv assessed as bacterial growth inhibition at 250 ug/ml. The class given is functional.
Assay [2] has as its system Mycobacterium tuberculosis. Description: Antitubercular activity against Mycobacterium tuberculosis H37Rv assessed as bacterial growth inhibition at 100 ug/ml. It counts as functional.
In assay [3] the test system is Staphylococcus aureus. Description: Antimicrobial activity against Staphylococcus aureus assessed as diameter of inhibition zone at 1 mg/ml incubated for 48 hrs by agar disk diffusion method. The class given is functional. The conditions noted are these: read-out: DIZ.
In assay [4] the test system is Escherichia coli. Description: Antimicrobial activity against Escherichia coli assessed as diameter of inhibition zone at 1 mg/ml incubated for 48 hrs by agar disk diffusion method. The class given is functional. The conditions noted are these: read-out: DIZ. A general note: A growth-free zone around the sample is the usual read-out of agar diffusion tests.
Assay [5] concerns Pseudomonas aeruginosa. Description: Antimicrobial activity against Pseudomonas aeruginosa assessed as diameter of inhibition zone at 1 mg/ml incubated for 48 hrs by agar disk diffusion method. It counts as functional. Particulars: read-out: DIZ.
The next assay concerns Aspergillus niger. Description: Antifungal activity against Aspergillus niger assessed as diameter of inhibition zone at 1 mg/ml incubated for 72 to 91 hrs by agar disk diffusion method. Particulars: time 72-91 hrs, read-out: DIZ. The class given is functional.
The subject of the next assay is Penicillium chrysogenum. Description: Antifungal activity against Penicillium chrysogenum assessed as diameter of inhibition zone at 1 mg/ml incubated for 72 to 91 hrs by agar disk diffusion method. The class given is functional. The conditions noted are these: time 72-91 hrs, read-out: DIZ.
The species entered for a further assay is Capra hircus. Description: Inhibition of goat lens AR at 100 uM incubated for 10 mins in presence of NADPH by spectroscopic analysis.
The nature of assay [6]: Antioxidant activity assessed as DPPH radical scavenging activity incubated for 20 mins by spectrophotometric analysis. It counts as functional. Details: concentration or dose not given beside the values. (The DPPH test is a chemical assay of radical scavenging.)
The nature of assay [7]: Antioxidant activity assessed as hydroxyl radical scavenging activity incubated for 5 mins by spectrophotometric analysis. The class given is functional. Details: concentration or dose not given beside the values.
In assay [8] the test system is Staphylococcus aureus. Description: Antibacterial activity against Staphylococcus aureus assessed as bacterial growth inhibition by broth microdilution method. The class given is functional. (Dilution methods test growth across graded concentrations, often in twofold steps.)
Assay [9] has as its system Escherichia coli. Description: Antibacterial activity against Escherichia coli assessed as bacterial growth inhibition by broth microdilution method. It counts as functional.
The test system of assay [10] is Klebsiella pneumoniae. Description: Antibacterial activity against Klebsiella pneumoniae assessed as bacterial growth inhibition by broth microdilution method. It counts as functional.
In assay [11] the test system is Pseudomonas aeruginosa. Description: Antibacterial activity against Pseudomonas aeruginosa assessed as bacterial growth inhibition by broth microdilution method. It counts as functional.
Another assay concerns Aspergillus flavus. Description: Antifungal activity against Aspergillus flavus assessed as fungal growth inhibition by broth microdilution method. The class given is functional.
The next assay concerns Candida albicans. Description: Antifungal activity against Candida albicans assessed as fungal growth inhibition by broth microdilution method. The class given is functional.
Assay [12] deals with Bacillus cereus. Description: Antimicrobial activity against Bacillus cereus assessed as diameter of inhibition zone at 1 mg/ml incubated for 48 hrs by agar disk diffusion method. The class given is functional. Particulars: read-out: DIZ.
The subject of assay [13] is Klebsiella pneumoniae. Description: Antimicrobial activity against Klebsiella pneumoniae assessed as diameter of inhibition zone at 1 mg/ml incubated for 48 hrs by agar disk diffusion method. The class given is functional. Particulars: read-out: DIZ.
The subject of assay [14] is Staphylococcus aureus. Description: Antibacterial activity against Staphylococcus aureus MTCC 96 assessed as bacterial growth inhibition incubated for 24 hrs by broth microdilution method. The class given is functional.
Assay [15] concerns Bacillus cereus. Description: Antimicrobial activity against Bacillus cereus ATCC14579 assessed as diameter of inhibition zone at 20 mg/ml incubated for 24 hrs by disk diffusion method. Particulars: read-out: DIZ. It counts as functional.
Assay [16] deals with Staphylococcus aureus. Description: Antimicrobial activity against Staphylococcus aureus NCTC7447 assessed as diameter of inhibition zone at 20 mg/ml incubated for 24 hrs by disk diffusion method. Particulars: read-out: DIZ. It counts as functional.
Assay [17] has as its system Klebsiella pneumoniae. Description: Antimicrobial activity against Klebsiella pneumoniae UC57 assessed as diameter of inhibition zone at 20 mg/ml incubated for 24 hrs by disk diffusion method. It counts as functional. Particulars: read-out: DIZ.
Assay [18] has as its system Pseudomonas aeruginosa. Description: Antimicrobial activity against Pseudomonas aeruginosa ATCC 27853 assessed as diameter of inhibition zone at 20 mg/ml incubated for 24 hrs by disk diffusion method. It counts as functional. The conditions noted are these: read-out: DIZ.
Assay [19] deals with Escherichia coli. Description: Antimicrobial activity against Escherichia coli ATCC 14169 assessed as diameter of inhibition zone at 20 mg/ml incubated for 24 hrs by disk diffusion method. The class given is functional. Particulars: read-out: DIZ.
For assay [20], the system named is Staphylococcus aureus. Description: Antibacterial activity against Staphylococcus aureus assessed as diameter of inhibition zone. The class given is functional.
Another assay deals with Bacillus subtilis. Description: Antibacterial activity against Bacillus subtilis assessed as diameter of inhibition zone. It counts as functional.
Assay [21] has as its system Escherichia coli. Description: Antibacterial activity against Escherichia coli assessed as diameter of inhibition zone. It counts as functional.
Another assay concerns Salmonella typhimurium. Description: Antibacterial activity against Salmonella typhimurium assessed as diameter of inhibition zone. The class given is functional, Salmonella enterica subsp. enterica serovar Typhimurium.
In another assay the target is Urease (Canavalia ensiformis, UniProt P07374). Description: Inhibition of jack bean urease by phenol red method.
Urease, sequence (P07374 whole entry): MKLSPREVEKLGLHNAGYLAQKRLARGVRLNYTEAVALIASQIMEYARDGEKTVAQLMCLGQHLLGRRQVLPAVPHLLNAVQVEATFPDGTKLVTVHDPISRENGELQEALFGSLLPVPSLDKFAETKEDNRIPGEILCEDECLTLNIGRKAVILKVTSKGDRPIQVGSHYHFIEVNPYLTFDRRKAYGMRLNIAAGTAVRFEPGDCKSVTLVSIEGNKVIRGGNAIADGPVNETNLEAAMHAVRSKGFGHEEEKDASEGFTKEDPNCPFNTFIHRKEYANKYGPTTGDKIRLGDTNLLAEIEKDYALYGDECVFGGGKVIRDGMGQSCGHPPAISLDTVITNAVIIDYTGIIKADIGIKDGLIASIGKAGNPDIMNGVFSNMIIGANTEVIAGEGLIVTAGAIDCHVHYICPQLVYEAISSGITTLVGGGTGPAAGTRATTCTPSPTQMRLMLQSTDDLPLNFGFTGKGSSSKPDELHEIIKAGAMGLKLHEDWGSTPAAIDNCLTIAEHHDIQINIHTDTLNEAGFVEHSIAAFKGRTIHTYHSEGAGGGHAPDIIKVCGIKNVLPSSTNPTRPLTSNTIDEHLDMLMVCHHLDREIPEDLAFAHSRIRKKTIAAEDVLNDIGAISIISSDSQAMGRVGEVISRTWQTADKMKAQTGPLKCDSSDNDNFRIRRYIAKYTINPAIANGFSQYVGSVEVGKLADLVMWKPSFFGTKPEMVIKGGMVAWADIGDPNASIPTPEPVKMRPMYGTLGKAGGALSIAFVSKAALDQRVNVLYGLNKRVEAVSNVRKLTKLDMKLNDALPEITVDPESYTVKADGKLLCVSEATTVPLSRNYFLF

By inhibition is commonly meant how much of the control response was suppressed. As to `CO[C@H]1/C=C/O[C@@]2(C)Oc3c(C)c(O)c4c(O)c(c(/C=N/N5CCN(C)CC5)c(O)c4c3C2=O)NC(=O)/C(C)=C\C=C\[C@H](C)[C@H](O)[C@@H](C)[C@@H](O)[C@@H](C)[C@H](OC(C)=O)[C@@H]1C` [RIFAMPIN], the inhibition at 250 µg/mL in [1] was 98%. The inhibition at 100 µg/mL in assay [2] stood at 98%.

In the case of `COC(=O)C1=C(N)Oc2[nH]c(=S)[nH]c(=O)c2C1c1ccccc1Cl` (stereo not given), the zone of inhibition at 1000 µg/mL in the assay with Staphylococcus aureus [3] amounted to 11 mm; in the assay with Escherichia coli [4], 9 mm; with Pseudomonas aeruginosa [5], 4 mm; in the assay with Aspergillus niger it was 0 mm; in the assay with Penicillium chrysogenum, 0 mm.

Regarding `O=c1[nH]c2c(c(=O)[nH]1)Oc1c(c(=O)oc3ccccc13)C2c1ccc([N+](=O)[O-])cc1` (stereo not given), the inhibition in the assay filed under Capra hircus stood at 39%. Further, the Activity was determined as 59.1% in [6] and 54.3% in [7].

As usually defined, the MIC is the least concentration at which growth counts as inhibited. Regarding `CCO/C=N/C1=C(C#N)C(c2ccc(Cl)cc2)c2c(n(C)c(=O)n(C)c2=O)O1` (stereo not given), the MIC in the assay with Staphylococcus aureus [8] is 6.25 µg/mL (≈ 15.6 µM); in the assay with Escherichia coli [9], 6.25 µg/mL (≈ 15.6 µM); with Klebsiella pneumoniae [10] it was 6.25 µg/mL (≈ 15.6 µM); in the assay with Pseudomonas aeruginosa [11] it was 6.25 µg/mL (≈ 15.6 µM); in the assay with Aspergillus flavus, 3.12 µg/mL (≈ 7.78 µM); in the assay on Candida albicans, 3.12 µg/mL (≈ 7.78 µM).

For the compound `COC(=O)C1=C(N)Oc2[nH]c(=S)[nH]c(=O)c2C1c1ccc(OC)cc1` (stereo not given), the zone of inhibition at 1000 µg/mL with Staphylococcus aureus [3] stood at 16 mm; with Bacillus cereus [12], 19 mm; in the assay on Escherichia coli [4], 15 mm; in the assay with Klebsiella pneumoniae [13], 18 mm; in the assay with Pseudomonas aeruginosa [5], 16 mm; with Penicillium chrysogenum, 12 mm.

As to `COC(=O)C1=C(N)Oc2[nH]c(=S)[nH]c(=O)c2C1c1ccc(Cl)cc1` (stereo not given), the zone of inhibition at 1000 µg/mL with Bacillus cereus [12] amounted to 10 mm; in the assay on Escherichia coli [4], 7 mm; in the assay with Klebsiella pneumoniae [13] it was 3 mm; with Pseudomonas aeruginosa [5], 13 mm; in the assay with Penicillium chrysogenum, 0 mm.

As for `OC(Cn1cncn1)(Cn1cncn1)c1ccc(F)cc1F` [FLUCONAZOLE], the MIC with Aspergillus flavus and in the assay on Candida albicans was 1.56 µg/mL (≈ 5.09 µM) each time.

Turning to `COC(=O)C1=C(N)Oc2[nH]c(=S)[nH]c(=O)c2C1c1ccc(O)cc1` (stereo not given), the zone of inhibition at 1000 µg/mL in the assay with Staphylococcus aureus [3] is 21 mm; in the assay on Bacillus cereus [12] it was 18 mm; with Escherichia coli [4] it was 21 mm; in the assay on Klebsiella pneumoniae [13], 22 mm; with Pseudomonas aeruginosa [5] it was 18 mm; with Aspergillus niger, 23 mm. For the same compound, the zone of inhibition at 1000 µg/mL in the assay on Penicillium chrysogenum was determined as 23 mm.

For `Cc1cc2c(c(=O)o1)C(c1ccc(F)cc1)c1c(Nc3ccccc3)ncnc1O2` (stereo not given), the MIC in the assay with Staphylococcus aureus [14] worked out at 7.8 µg/mL (≈ 19.4 µM).

Turning to `COC(=O)C1=C(N)Oc2[nH]c(=S)[nH]c(=O)c2C1c1ccccc1` (stereo not given), the zone of inhibition at 1000 µg/mL in the assay on Staphylococcus aureus [3] was determined as 12 mm; with Bacillus cereus [12], 18 mm; in the assay on Escherichia coli [4], 17 mm; with Klebsiella pneumoniae [13] it was 21 mm; in the assay on Pseudomonas aeruginosa [5], 19 mm; in the assay on Aspergillus niger it was 12 mm.

In the case of `COc1ccc(C2c3c(Nc4ccccc4)ncnc3Oc3cc(C)oc(=O)c32)cc1` (stereo not given), the minimum inhibitory concentration (MIC) in the assay on Staphylococcus aureus [14] was 7.8 µg/mL (≈ 18.9 µM).

Turning to `CCO/C=N/C1=C(C#N)C(c2ccc(F)cc2)c2c(n(C)c(=O)n(C)c2=O)O1` (stereo not given), the MIC was determined as 6.25 µg/mL (≈ 16.3 µM) in the assay with Staphylococcus aureus [8]; 6.25 µg/mL (≈ 16.3 µM) with Escherichia coli [9]; 6.25 µg/mL (≈ 16.3 µM) in the assay on Klebsiella pneumoniae [10]; 6.25 µg/mL (≈ 16.3 µM) with Pseudomonas aeruginosa [11]; 3.12 µg/mL (≈ 8.12 µM) in the assay on Aspergillus flavus; 3.12 µg/mL (≈ 8.12 µM) with Candida albicans.

By IC50 is commonly meant the point on the concentration scale where inhibition reaches its midpoint. Regarding `N#CC1=C(N)Oc2[nH]c(=O)[nH]c(=O)c2C1c1ccc(Br)cc1` (stereo not given), the zone of inhibition at 20000 µg/mL in the assay with Bacillus cereus [15] was determined as 4 mm; in the assay on Staphylococcus aureus [16], 12 mm; in the assay on Klebsiella pneumoniae [17], 3 mm; in the assay with Pseudomonas aeruginosa [18], 4 mm; with Escherichia coli [19] it was 6 mm. Moreover, the “diameter of the inhibition zone (DIZ)” value with Staphylococcus aureus [20] came out at 18 mm; in the assay on Bacillus subtilis, 14 mm; in the assay with Escherichia coli [21], 12 mm; in the assay with Salmonella typhimurium, 16 mm. In addition, the IC50 on Urease stood at 51.3 µM.
